In test [1] the test system is CD34+ cells (CFU-E, BFU-E). The test is described as follows: Erythroid progenitor number in the presence of Epo (flow cytometry). It counts as cell-based, human. To be noted: SCF, IL-3 and Epo, 3 days. The procedure: FIG. 20, comprising FIG. 20A through FIG. 20E, illustrates the functional effects of myosin-II inhibition on HSC differentiation. FIG. 20A (Left) illustrates the enrichment of polyploid MKs by Bleb from CD34^+ cells cultured in SCF and Tpo (n=4 donors). Y-axis represents the ratios between polyploid MKs and 2n+4n MKs. […] Hill coefficient=7.0. FIG. 20A (Middle) illustrates the enrichment of BFU-E relative to CFU-GM in the absence of Epo. CD34^+-derived cells were cultured with SCF and Tpo under Bleb and progenitors were enumerated by colony forming assays. […] FIG. 20A (Right) illustrates the sensitivity of erythroid progenitors against Bleb in the presence of Epo. CD34^+ cells were cultured with SCF, IL-3 and Epo for 4 days before treating with Bleb for 3 days, followed by flow cytometry with Hoechst 33342 to stain for nuclei. BFU-E=CD34^+IL-3R^+CD36^-; CFU-E=CD34^-IL-3R^-CD36^+. Absolute values were normalized to […] initial cell input and fit to dose-response curves: […] FIG. 20B is a graph depicting the limiting dilution analyses showing functional LT-HSCs after myosin inhibition. Human-CD34^+-derived cells were treated with Bleb for 3 days and injected intra-tibally into irradiated NSG mice. […] FIG. 20D illustrates the kinetics of human-CD41^+ plts in circulation were measured after transplantation of human CD34^+-derived cells and normalized by the initial number of CD41^+ cells transplanted. Areas under curves show significant differences between drug-treated and untreated. […] FIG. 20E is a graph showing that human-CD41^+ plts derived in vivo after transplantation into NSG mice show the normal plt size compared to human blood plts. […] Freshly purified bone marrow-derived human CD34^+ cells were obtained from either the Penn Xenograft Core Facility or AllCells (Emeryville, Calif.). Cells from at least 20 different donors were used in this study. Purity of the samples (>98%) was confirmed by flow cytometry with monoclonal antibody against human CD34. All experiments were performed in HSC expansion media ([…], Sigma) supplemented with 1× antibiotics, 20% BIT 9500 Serum Substitute (StemCell Technologies), 2 mM […] (Gibco) and the following human recombinant cytokines: SCF (100 ng/ml) and Tpo (100 ng/ml). In some occasions, the media was also supplemented by G-CSF (100 ng/ml), epidermal growth factor (EGF, 100 ng/ml), transforming growth factor beta 1 (TGF-beta1, 100 ng/ml), erythropoietin (EPO, 1 U/ml) and interleukin-3 (IL-3, 10 ng/ml). All cytokines were purchased from R&D Systems. After cells were cultured for 4 days, they were treated with different doses of cellular contractility inhibitors, including (±)-Blebbistatin (Bleb) (EMD Biosciences) and/or CH-223191 (Sigma) for indicated durations of up to 3 days.
On the technique in general: A flow cytometer gives signals particle by particle.

Another test has as its system CD34+-derived cells. The test can be described thus: DNA microarray transcriptional profiling. It counts as cell-based, human. The procedure:
Total RNA was extracted from cells using trizol and isolated by RNeasy (Qiagen) according to manufacturer's protocol. Total RNA was amplified and converted to cDNA using WT-Ovation Pico kit (NuGen) and converted to ST-cDNA, fragmented and biotinfunctionalized using WT-Ovation Exon Mudule (NuGen). Hybridization cocktails were prepared at 45.4, 15.1 and 7.6 ng/μl ST-cDNA and mixed with Eukaryotic Hybridization Controls (GeneChip) at proportional concentrations. Each sample was interrogated by sequential hybridization, rinse and scan cycles on a single Human Gene 1.0 ST DNA microarray (Affymetrix), from low to high concentration, and followed by two rinse-scan cycles in which no sample was added. In each experiment the scanned intensities that were obtained from all samples, five scans per array, were mutually RMA-summarized to transcription clusters gene levels. Log-base-2 fold changes were calculated for each scan separately relative to the mean Bleb-treated and non-treated CD34^+ and CD34^− intensities, gene by gene, and the average and standard deviation values (SD) were calculated across scans. Heat maps of selected genes summarize data from technical and biological replica. Average gene-expression fold changes±STD of HSC, MPP and CPP samples are shown in white. Log-base-2 fold changes of Bleb-treated and non-treated CD34^+ and CD34^− were averaged from two biologically independent experiments and are shown±SD. The particular fold-changes are color coded on a logarithmic scale that is defined per each heat map. Color-coded gene symbols represent the absolute gene expression levels of the biologically-replicated averages of CD34^+ non-treated intensities. Gene expression levels are coded <=5 (green) to >=10 (red) on a log-base-2 scale. Samples and genes were clustered by Pearson Correlation (MeV). Dendograms represent the correlative proximity of log-base-2 gene expression fold changes. Mean gene expression levels were calculated by averaging across five array scans. Log-base-2 gene expression fold changes were calculated relative to the mean Bleb-treated and non-treated CD34^+ and CD34^− intensities, gene by gene.

What is called pIC50 is the negative decadic logarithm of the IC50, by convention in mol/L.

SMILES strings stand for the structures. pIC50: −log10 of the molar value. Read-outs that look alike come from different tables or passages of the source.

Turning to `Cc1ccc2c(c1)C(=O)C1(O)CCN(c3ccccc3)C1=N2` (racemic) [blebbistatin, (±)-blebbistatin], the pIC50 is 4.96 in test [1] (read-out: BFU-E 2n IC50), 4.89 in test [1] (read-out: BFU-E 4n IC50), 5.06 in test [1] (read-out: CFU-E 2n IC50) and 4.89 in test [1] (read-out: CFU-E 4n IC50). In addition, in the test with CD34+-derived cells, the “NMM-IIA mRNA lower in drug-treated CD34+ cells” value was roughly 30%. Further, in the test with CD34+-derived cells, the “reduction of cyclin D1 and D3 (CCND1 and 3) expression” value worked out at 2 fold. Also, the “SCF receptor (KIT) expression vs untreated CD34+ cells” value in the test with CD34+-derived cells (treated CD34+ cells) is 1.8 fold. The “upregulation of CD133 (PROM1) and CD34 above pooled average” value in the test on CD34+-derived cells (treated CD34+ cells in culture) is “more than 2 fold”.
